In PubChem BioAssay (NCI):
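The compound was tested at five concentrations on cells cultured in 96-well plates, with a 48-hour exposure period. Abbreviation: GI50, concentration required for 50% inhibition of growth. The concentration for full growth arrest is given as TGI.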

Experiments:
Test in all cases: inhibition of tumour cell growth, NCI panel, 48 h
[1] = tested on: COLO 205 colon
[2] = tested on: SF-295 CNS
[3] = tested on: LOX IMVI melanoma
[4] = tested on: BT-549 breast
[5] = tested on: SNB-75 CNS
[6] = tested on: SK-MEL-28 melanoma
[7] = tested on: HCC-2998 colon
[8] = tested on: OVCAR-3 ovarian
[9] = tested on: OVCAR-8 ovarian
[10] = tested on: UO-31 renal

| SMILES | TGI [1] [µM] | TGI [2] [µM] | TGI [3] [µM] | TGI [4] [µM] | TGI [5] [µM] | TGI [6] [µM] | TGI [7] [µM] | TGI [8] [µM] | TGI [9] [µM] | TGI [10] [µM] | GI50 [1] [µM] | GI50 [2] [µM] | GI50 [3] [µM] | GI50 [4] [µM] | GI50 [5] [µM] | GI50 [6] [µM] | GI50 [7] [µM] | GI50 [8] [µM] | GI50 [9] [µM] | GI50 [10] [µM] |
| --- | --- | --- | --- | --- | --- | --- | --- | --- | --- | --- | --- | --- | --- | --- | --- | --- | --- | --- | --- | --- |
| C[As+](C)(c1ccc(Br)c([N+](=O)[O-])c1)c1ccc(Br)c([N+](=O)[O-])c1.O=[N+]([O-])O | > 100 | > 100 | > 100 | > 100 | > 100 | 76.8 | > 100 | > 100 | > 100 | > 100 | – | – | – | – | – | – | – | – | – | – |
| CC/C=N\N1C(N)=C(C#N)C(C#N)(C#N)C1CC (stereo not given) | > 100 | > 100 | > 100 | > 100 | > 100 | > 100 | > 100 | > 100 | > 100 | > 100 | – | – | – | – | – | – | – | – | – | – |
| O=C1c2cc3c(cc2-c2c1c1ccc(Cl)cc1c(=O)n2CCCn1ccnc1)OCO3 | > 100 | 10 | 0.0297 | > 100 | 4.14 | > 100 | > 100 | 1.4 | > 100 | > 100 | 0.0552 | < 0.01 | < 0.01 | 0.0491 | 0.0107 | 0.158 | 0.0737 | 0.0396 | 0.0116 | < 0.01 |
| COc1ccc([C@]23CCC4(OCC(C)(C)CO4)[C@H]4CON(O[C@H](O[C@@H]5CCCCC5C(C)(C)c5ccccc5)C2)[C@@H]43)cc1OC (stereo not given in full) | > 100 | > 100 | > 100 | > 100 | > 100 | > 100 | > 100 | > 100 | > 100 | > 100 | – | – | – | – | – | – | – | – | – | – |
| CCOC(=O)[C@@H](Cc1ccc(CCl)cc1)NC(C)=O | 43.9 | > 100 | 37 | > 100 | 59 | 86.2 | 40.4 | > 100 | > 100 | 36.4 | – | – | – | – | – | – | – | – | – | – |
| O=C1CSC(c2c[nH]c3ccccc23)N1c1ccc(Cl)cc1Cl (stereo not given) | > 100 | > 100 | > 100 | > 100 | > 100 | > 100 | > 100 | > 100 | > 100 | > 100 | – | – | – | – | – | – | – | – | – | – |
| CC1=NN2C(=N)/C(=C/c3ccc(F)cc3)C(=O)N=C2S1 | > 100 | > 100 | > 100 | > 100 | > 100 | > 100 | > 100 | > 100 | > 100 | > 100 | – | – | – | – | – | – | – | – | – | – |
| O=C1C=CC(=O)c2c(O)c(N3CCC[C@@H]3CO)c(Cl)c(O)c21 | 2.88 | 3.25 | 3.16 | 3.7 | 3.12 | 3.24 | 3.49 | 3.08 | 4.13 | 3.49 | – | – | – | – | – | – | – | – | – | – |
| CSc1ccc(/C=C2\N=C(c3ccccc3)N(c3nc4cc(Cl)c(F)cc4s3)C2=O)cc1 | > 100 | > 100 | 55.6 | > 100 | 66.6 | > 100 | > 100 | 60.1 | 51.7 | > 100 | – | – | – | – | – | – | – | – | – | – |
| C=C1C[C@@H]2O[C@H]3[C@H]4[C@@H](C[C@@H](C)[C@@H](OC(C)=O)[C@H]42)[C@@H](C)CO[C@@]3(C)[C@H](OC(=O)CCCCCCC)CC1=O | 27.3 | 33.6 | 30.1 | 36.9 | 24.8 | 28.7 | 30.8 | 32 | 30.9 | 29.5 | – | – | – | – | – | – | – | – | – | – |
| CCC1(CC)C(=O)N(C(=O)c2cc(OC)c(OC)c(OC)c2)N(C(=O)c2cc(OC)c(OC)c(OC)c2)C1=O | > 50 | > 50 | > 50 | > 50 | > 50 | > 50 | > 50 | > 50 | > 50 | > 50 | – | – | – | – | – | – | – | – | – | – |
| Cc1cccc2c1CC(Cc1ccccc1C(=O)O)C2=O (stereo not given) | > 100 | > 100 | > 100 | > 100 | > 100 | > 100 | > 100 | > 100 | > 100 | > 100 | – | – | – | – | – | – | – | – | – | – |
| NC(=O)NN=C1Cc2ccccc2C1 | > 100 | > 100 | > 100 | > 100 | > 100 | > 100 | > 100 | > 100 | > 100 | > 100 | – | – | – | – | – | – | – | – | – | – |
| CS(=O)(=O)Nc1ccc2ccccc2c1 | > 100 | > 100 | > 100 | > 100 | > 100 | > 100 | > 100 | > 100 | > 100 | > 100 | – | – | – | – | – | – | – | – | – | – |
| COc1cc2c(cc1OCc1ccccc1)NC(=O)[C@@H]1CCCN1C2=O | > 100 | > 100 | > 100 | > 100 | > 100 | > 100 | > 100 | > 100 | > 100 | > 100 | – | – | – | – | – | – | – | – | – | – |
| CC(C)=CCC[C@@H](C)C1=C(Nc2ccccc2F)C(O)=C(C)C(=O)C1=O | 12.4 | > 31.5 | > 100 | > 100 | > 100 | > 64.3 | 38.1 | > 100 | > 30.2 | 25.2 | – | – | – | – | – | – | – | – | – | – |
| Cn1c(=O)cc(NNc2ccc(Cl)c(Cl)c2)[nH]c1=O | 35.8 | 43.2 | 28.1 | 29.9 | 48.4 | 25.1 | 16.6 | 28.8 | 31 | 24.4 | – | – | – | – | – | – | – | – | – | – |
